Literature values as cited in patent publication US10143659B2, “Melt-extruded release controlled pharmaceutical composition and oral dosage form comprising the same” (Samyang Biopharmaceuticals Corporation, priority 2012, dated 2018).

For `Cc1nc2n(c(=O)c1CCN1CCC(c3noc4cc(F)ccc34)CC1)CCCC2O` (centres unmarked) [Paliperidone], the “solubility in methylene chloride, methanol and 0.1N hydrochloric acid” value (methylene chloride, methanol, 0.1N hydrochloric acid) is listed as “well dissolved” and the solubility in water (water) is listed as “poorly soluble”.
